Assay results from ChEMBL document CHEMBL1201862, “PubChem BioAssay data set” (2004).
Values belong to the compound of their own block, whether it stands above or below them. The source made the active and inactive calls.

Columns and labels:
INS1 = experiment: INS-1E survival protection against cytokine death – cell-based, luminescence, retest, dose response (AID 449756); format: functional; details: Rattus norvegicus;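 note: cell death triggered by IL-1 beta plus TNF-alpha plus IFN-gamma mixture; protective hits raise ATP signal compared with cytokine alone wells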
Cytochrome P450 3A4 = Cytochrome P450 3A4 (Homo sapiens, UniProt P08684);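 note: CYP3A4 tested as one member of a cytochrome P450 panel screen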
Chain of Cytochrome P450 3A4 (P08684 whole entry): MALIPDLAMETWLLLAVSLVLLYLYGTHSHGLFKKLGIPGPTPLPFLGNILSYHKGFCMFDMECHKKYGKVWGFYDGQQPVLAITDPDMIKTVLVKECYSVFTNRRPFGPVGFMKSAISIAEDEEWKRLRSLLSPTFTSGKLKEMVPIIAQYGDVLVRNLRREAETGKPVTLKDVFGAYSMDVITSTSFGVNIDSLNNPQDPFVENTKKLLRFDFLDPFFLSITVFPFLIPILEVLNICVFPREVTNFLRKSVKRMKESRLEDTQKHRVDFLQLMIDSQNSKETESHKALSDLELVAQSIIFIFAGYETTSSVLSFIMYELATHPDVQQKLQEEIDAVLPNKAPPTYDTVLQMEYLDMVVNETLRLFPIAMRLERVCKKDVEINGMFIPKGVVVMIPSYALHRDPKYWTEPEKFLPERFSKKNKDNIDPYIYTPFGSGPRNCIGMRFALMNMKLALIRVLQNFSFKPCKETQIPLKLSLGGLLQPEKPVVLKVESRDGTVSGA

Cytochrome P450 2D6 = Cytochrome P450 2D6 (Homo sapiens, UniProt P10635);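 note: CYP2D6 member of a cytochrome P450 panel assay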
Chain of Cytochrome P450 2D6 (P10635 whole entry): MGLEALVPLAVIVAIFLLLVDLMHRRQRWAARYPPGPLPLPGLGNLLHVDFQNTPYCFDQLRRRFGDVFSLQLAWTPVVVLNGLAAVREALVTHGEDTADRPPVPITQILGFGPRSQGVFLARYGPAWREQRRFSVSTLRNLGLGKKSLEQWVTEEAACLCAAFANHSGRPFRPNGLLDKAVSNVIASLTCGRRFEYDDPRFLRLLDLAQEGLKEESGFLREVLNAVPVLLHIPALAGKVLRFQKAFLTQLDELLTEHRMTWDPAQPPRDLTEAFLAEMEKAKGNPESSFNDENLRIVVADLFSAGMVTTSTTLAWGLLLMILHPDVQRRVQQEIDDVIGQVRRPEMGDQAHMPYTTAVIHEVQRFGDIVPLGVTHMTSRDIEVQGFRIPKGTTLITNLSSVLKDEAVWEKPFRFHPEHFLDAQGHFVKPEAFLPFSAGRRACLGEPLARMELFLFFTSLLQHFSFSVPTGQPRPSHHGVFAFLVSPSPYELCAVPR

Cytochrome P450 1A2 = target: T1, Cytochrome P450 1A2 (Homo sapiens, UniProt P05177);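 note: PubChem cytochrome P450 panel assay, CYP1A2 panel member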
T1 sequence (P05177 whole entry): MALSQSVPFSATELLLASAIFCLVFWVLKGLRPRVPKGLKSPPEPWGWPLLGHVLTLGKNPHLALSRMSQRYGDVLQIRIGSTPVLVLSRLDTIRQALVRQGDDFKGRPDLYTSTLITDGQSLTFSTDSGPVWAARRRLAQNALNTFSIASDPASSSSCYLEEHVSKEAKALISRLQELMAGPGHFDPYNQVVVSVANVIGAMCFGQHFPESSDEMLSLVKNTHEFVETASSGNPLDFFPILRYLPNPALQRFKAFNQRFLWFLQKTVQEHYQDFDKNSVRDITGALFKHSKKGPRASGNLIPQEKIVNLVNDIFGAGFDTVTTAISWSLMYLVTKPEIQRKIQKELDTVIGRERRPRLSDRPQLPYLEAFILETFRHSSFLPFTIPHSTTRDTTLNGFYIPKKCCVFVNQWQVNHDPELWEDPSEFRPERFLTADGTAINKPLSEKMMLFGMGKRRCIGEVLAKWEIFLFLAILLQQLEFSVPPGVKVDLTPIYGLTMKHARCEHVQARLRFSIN

[1] = target: T2, Heat shock factor protein 1 (Mus musculus, UniProt P38532); experiment: decrease of HSF1-responsive luciferase luminescence – cell-based, NIH3T3, dose retest, confirmation (AID 2382); format: functional;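 note: NIH3T3 fibroblasts with HSF1-driven luciferase reporter stressed by proteasome inhibitor MG132; luminescence from HSF1-driven luciferase expression after 8 hours of MG132 stress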
T2 sequence (P38532 whole entry): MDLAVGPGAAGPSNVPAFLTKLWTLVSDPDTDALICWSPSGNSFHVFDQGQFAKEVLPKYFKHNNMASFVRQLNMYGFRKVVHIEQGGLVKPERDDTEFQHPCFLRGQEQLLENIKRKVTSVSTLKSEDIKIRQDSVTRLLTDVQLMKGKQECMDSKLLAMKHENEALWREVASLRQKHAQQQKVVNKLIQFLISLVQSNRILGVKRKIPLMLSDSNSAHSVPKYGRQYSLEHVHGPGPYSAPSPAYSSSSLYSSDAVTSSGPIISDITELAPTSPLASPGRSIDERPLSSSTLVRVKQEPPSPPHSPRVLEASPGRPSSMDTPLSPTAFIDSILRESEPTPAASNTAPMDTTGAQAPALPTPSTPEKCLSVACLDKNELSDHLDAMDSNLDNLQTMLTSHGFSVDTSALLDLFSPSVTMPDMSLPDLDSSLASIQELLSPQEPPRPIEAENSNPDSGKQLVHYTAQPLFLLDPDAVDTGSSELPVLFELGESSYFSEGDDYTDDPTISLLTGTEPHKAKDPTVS

Cytochrome P450 2C9 = Cytochrome P450 2C9 (Homo sapiens, UniProt P11712)
Chain of Cytochrome P450 2C9 (P11712 whole entry): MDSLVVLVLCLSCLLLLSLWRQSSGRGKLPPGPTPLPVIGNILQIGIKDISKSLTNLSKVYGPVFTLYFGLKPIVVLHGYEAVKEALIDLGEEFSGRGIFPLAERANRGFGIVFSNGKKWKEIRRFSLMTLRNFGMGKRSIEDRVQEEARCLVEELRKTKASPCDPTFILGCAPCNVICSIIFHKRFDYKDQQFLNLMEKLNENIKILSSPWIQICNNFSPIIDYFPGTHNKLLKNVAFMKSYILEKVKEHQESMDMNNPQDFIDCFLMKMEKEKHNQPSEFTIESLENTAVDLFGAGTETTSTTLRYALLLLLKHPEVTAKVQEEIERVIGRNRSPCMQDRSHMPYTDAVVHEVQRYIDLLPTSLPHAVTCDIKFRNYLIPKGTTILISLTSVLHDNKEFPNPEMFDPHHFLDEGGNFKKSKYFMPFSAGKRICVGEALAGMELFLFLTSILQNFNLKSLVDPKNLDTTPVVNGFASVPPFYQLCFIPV

Cytochrome P450 2C19 = Cytochrome P450 2C19 (Homo sapiens, UniProt P33261); experiment: Cytochrome panel assay with activity outcomes. Panel member name: p450-cyp2c19 Compounds with AC50 equal or less than 10 uM are considered active; format: functional
Chain of Cytochrome P450 2C19 (P33261 whole entry): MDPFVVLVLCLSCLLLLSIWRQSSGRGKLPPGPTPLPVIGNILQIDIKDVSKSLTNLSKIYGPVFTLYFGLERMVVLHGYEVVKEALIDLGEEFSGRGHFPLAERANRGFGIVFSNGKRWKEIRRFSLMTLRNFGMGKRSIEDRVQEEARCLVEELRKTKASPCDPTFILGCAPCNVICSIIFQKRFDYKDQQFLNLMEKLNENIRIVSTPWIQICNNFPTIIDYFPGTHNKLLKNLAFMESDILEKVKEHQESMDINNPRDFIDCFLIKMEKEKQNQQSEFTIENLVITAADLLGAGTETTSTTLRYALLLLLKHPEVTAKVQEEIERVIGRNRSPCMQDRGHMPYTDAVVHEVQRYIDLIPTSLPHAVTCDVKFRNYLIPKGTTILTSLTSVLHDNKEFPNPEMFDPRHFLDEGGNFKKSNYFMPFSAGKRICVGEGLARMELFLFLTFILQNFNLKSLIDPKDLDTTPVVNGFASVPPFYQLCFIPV

AC50 (Cytochrome P450 2D6): 39.8 µM (inconclusive) | AC50 (Cytochrome P450 3A4): 10 µM (inconclusive)
Compound: Cc1cnc(CNc2nc(-c3ccccc3C)nc3ccccc23)cn1

EC50 [1]: > 195 µM (not active)
Compound: CCOc1ccc(NC(=O)c2cccnc2C(=O)O)cc1

AC50 (Cytochrome P450 2D6): 20 µM (inconclusive) | AC50 (Cytochrome P450 3A4): 15.8 µM (inconclusive)
Compound: CN1CCN(c2ncc3ncc(=O)n(CCc4ccccc4)c3n2)CC1

EC50 [1]: > 195 µM (not active)
Compound: O=C(CSc1nnc(CCc2ccccc2)n1-c1ccc(Cl)cc1)c1ccccc1

AC50 (Cytochrome P450 2D6): 7.94 µM (inconclusive) | AC50 (Cytochrome P450 3A4): 39.8 µM (inconclusive) | AC50 (Cytochrome P450 2C9): 35.5 µM (inconclusive)
Compound: COc1ccc(/C=N\NC(=O)C2C(=O)NCC2c2ccccc2)cc1O (configuration not stated)

AC50 (Cytochrome P450 2C19; read-out: AC50): 39.8 µM (inconclusive)
Compound: COC(=O)[C@@]1(Cc2ccc(OC)cc2)[C@H]2c3cc(C(=O)N(C)C)n(CCc4ccccn4)c3C[C@H]2CN1C(=O)c1ccccc1

AC50 (Cytochrome P450 2D6): 2.24 µM (inconclusive) | AC50 (Cytochrome P450 3A4): 3.16 µM (inconclusive)
Compound: COc1ccccc1CNC(=O)Cn1nnc(-c2ccncc2)n1

EC50 [1]: > 195 µM (not active)
Compound: COc1ccc(C2=NCCn3nc4cc([N+](=O)[O-])ccc4c32)cc1

AC50 (Cytochrome P450 2C19; read-out: AC50): 28.2 µM (inconclusive) | AC50 (Cytochrome P450 1A2): 2.51 µM (inconclusive)
Compound: Cc1cc(C)c(NC(=O)CSc2nnc(Cc3cccn3C)n2-c2ccc(F)cc2)c(C)c1

AC50 (Cytochrome P450 2C9): 15.8 µM (inconclusive)
Compound: O=C(Oc1ccccc1[N+](=O)[O-])c1cccnc1

AC50 (Cytochrome P450 2C9): 2 µM (inconclusive)
Compound: Cc1ccc(C(=O)COC(=O)c2ccccc2N2C(=O)C3C4CCC(C4)C3C2=O)cc1C (configuration not stated)

AC50 (Cytochrome P450 1A2): 0.282 µM (inconclusive)
Compound: COC(=O)c1sccc1-c1ccc(C(=O)Nc2cccnc2)o1

AC50 (Cytochrome P450 2C19; read-out: AC50): 25.1 µM (inconclusive) | AC50 (Cytochrome P450 2C9): 31.6 µM (inconclusive)
Compound: COc1cccc(Nc2ncc3nc(C)c(=O)n(-c4ccccc4)c3n2)c1

AC50 (Cytochrome P450 1A2): 12.6 µM (inconclusive) | AC50 (Cytochrome P450 3A4): 14.1 µM (inconclusive) | AC50 (Cytochrome P450 2C9): 15.8 µM (inconclusive)
Compound: Cc1ccccc1OCC(=O)NC(=S)Nc1ccc(N2CCOCC2)c(Cl)c1

AC50 (Cytochrome P450 2C19; read-out: AC50): 22.4 µM (inconclusive)
Compound: c1ccc(-c2n[nH]c(-c3ccccc3)c2-c2nc3ccccc3[nH]2)cc1

AC50 (Cytochrome P450 2D6): 17.8 µM (inconclusive) | AC50 (Cytochrome P450 2C9): 4.47 µM (inconclusive)
Compound: Cc1ccnc(NC(=O)c2cccc(NC(=O)COc3ccccc3)c2)c1

AC50 (Cytochrome P450 2D6): 25.1 µM (inconclusive) | AC50 (Cytochrome P450 3A4): 12.6 µM (inconclusive)
Compound: Cc1nc2ccccn2c1C(=O)CSc1ccccc1Cl

AC50 (Cytochrome P450 1A2): 22.4 µM (inconclusive)
Compound: Cc1cc(C)c(NC(=O)C(C)Sc2nnc(-c3ccco3)n2-c2ccccc2)c(C)c1 (configuration not stated)

EC50 [1]: > 195 µM (not active)
Compound: COC(=O)CN1C(=O)Nc2ccc(C)cc2C1c1ccccc1 (configuration not stated)

The remaining lines, values behind:

Compound: Fc1ccc(Oc2nc(-c3ccccn3)nc3ccccc23)cc1
AC50 (INS1): 4.84 µM (active)

Compound: CC(C)C(NC(=O)C1CCCCC1)C(=O)NCc1ccccn1 (configuration not stated)
AC50 (Cytochrome P450 3A4): 15.8 µM (inconclusive)

Compound: Cc1ccc(-n2c(S)nnc2-c2cc(C)n(C)n2)cc1
AC50 (Cytochrome P450 1A2): 28.2 µM (inconclusive)

Compound: COc1ccc(OC)c(NC(S)=NCc2cccnc2)c1
EC50 [1]: > 195 µM (not active)

Compound: Cc1ccc(NC(=O)CSCc2cc(=O)n3cc(C)sc3n2)c(C)c1
EC50 [1]: > 195 µM (not active)

Compound: Cn1cccc1C(=O)N1CCC[C@@]2(CCN(Cc3ccccc3)C2)C1
AC50 (Cytochrome P450 1A2): 10 µM (inconclusive) | AC50 (Cytochrome P450 3A4): 5.01 µM (inconclusive)

Compound: COc1ccc(NC(=O)N2CCC3(CC2)CCN(C(=O)c2csnn2)CC3)cc1
AC50 (Cytochrome P450 1A2): 6.31 µM (inconclusive) | AC50 (Cytochrome P450 3A4): 12.6 µM (inconclusive)

Compound: CC1(C)CC(=O)C(/C=N/CCN2CCN(C(=S)Nc3ccc(F)cc3)CC2)=C(O)C1
AC50 (Cytochrome P450 3A4): 25.1 µM (inconclusive) | AC50 (Cytochrome P450 2C9): 25.1 µM (inconclusive)

Compound: O=C(c1cccc(F)c1)N1CCC[C@@]2(CCN(Cc3nccs3)C2)C1
AC50 (Cytochrome P450 2D6): 20 µM (inconclusive) | AC50 (Cytochrome P450 1A2): 12.6 µM (inconclusive)

Compound: O=C(O)c1cc(-c2ccc3cc4c(cc3c2)OCO4)nc2ccccc12
AC50 (Cytochrome P450 1A2): 3.16 µM (inconclusive)

Compound: CCC(=O)N(C)/C=C1\Sc2ccccc2C1=O
AC50 (Cytochrome P450 3A4): 14.1 µM (inconclusive) | AC50 (Cytochrome P450 2C9): 12.6 µM (inconclusive)

Compound: COCCn1c(=O)c(-c2cc(F)cc(F)c2)nc2cnc(N3CCN(C)CC3)nc21
AC50 (Cytochrome P450 1A2): 15.8 µM (inconclusive) | AC50 (Cytochrome P450 2C9): 39.8 µM (inconclusive)

Compound: O=C(c1ccccc1)N1CCSC1=S
AC50 (Cytochrome P450 2C19; read-out: AC50): 25.1 µM (inconclusive)

Compound: COc1ccc(NC(=O)Cn2cccc2)c(OC)c1
AC50 (Cytochrome P450 2C9): 7.08 µM (inconclusive)

Compound: CCNC(=O)C1CC(=O)OC12CCCCC2 (configuration not stated)
AC50 (Cytochrome P450 2C9): 25.1 µM (inconclusive)

Compound: O=C(O)/C=C\C(=O)Nc1ccc2c(c1)C(=O)c1cc(F)ccc1-2
AC50 (Cytochrome P450 1A2): 0.794 µM (inconclusive)

Compound: Cc1ccc(C(=O)NCCNC(=O)CN2CCOCC2)cc1
AC50 (Cytochrome P450 2C19; read-out: AC50): 0.708 µM (inconclusive) | AC50 (Cytochrome P450 3A4): 28.2 µM (inconclusive)

Compound: COC(=O)[C@H](Cc1ccccc1)N(Cc1ccccc1)S(=O)(=O)N(Cc1ccccc1)[C@@H](Cc1ccccc1)C(=O)OC
AC50 (INS1): 4.51 µM (active)

Compound: O=C1O[C@@H]([C@H](O)[C@H](O)[C@H](O)CO)[C@@H](O)[C@@H]1O
AC50 (Cytochrome P450 2C19): inconclusive

Compound: CCCCCC(=O)O[C@H](CC(=O)O)C[N+](C)(C)C
AC50 (Cytochrome P450 1A2): 31.6 µM (inconclusive)

Compound: CCOC(=O)c1cc2c(=O)n3cccc(C)c3nc2n(CCOC)/c1=N\C(C)=O
EC50 [1]: > 195 µM (not active)

Compound: NC(=O)C1CCN(C(=O)OCc2ccccc2)CC1
AC50 (Cytochrome P450 2C19; read-out: AC50): 11.2 µM (inconclusive)

Compound: Cc1cc(=O)oc(C)c1C(=O)NCCCN1CCN(c2ccc(F)cc2)CC1
AC50 (Cytochrome P450 2D6): 15.8 µM (inconclusive) | AC50 (Cytochrome P450 2C9): 15.8 µM (inconclusive)

Compound: COc1ccc(COC(=O)N/N=C(\C)CC(=O)Nc2c(C)cc(C)cc2C)cc1
AC50 (Cytochrome P450 2C19; read-out: AC50): 25.1 µM (inconclusive) | AC50 (Cytochrome P450 1A2): 22.4 µM (inconclusive)

Compound: CC[C@@H]1C/C=C\Cc2ccccc2[C@H](C(=O)C[C@@H](O)CC(C)=O)OC1=O
AC50 (INS1): > 260 µM (inactive)

Compound: CCCOc1ccc(N2CC(C(=O)NC(C)C)CC2=O)cc1 (configuration not stated)
EC50 [1]: > 195 µM (not active)

Compound: COCCCN(Cc1ccco1)C(=O)CSc1nc2ccc[nH]c-2n1
EC50 [1]: > 195 µM (not active)

Compound: COc1ccccc1CN1CC2(CCN(C(=O)c3cnccn3)CC2)C1
AC50 (Cytochrome P450 3A4): 20 µM (inconclusive)

Compound: COc1ccc(S(=O)(=O)Nc2ccccc2C(=O)N2CCOCC2)cc1Cl
EC50 [1]: 46 µM (active)

Compound: c1ccc2c(CNC3CCCCC3)c[nH]c2c1
AC50 (INS1): 8.45 µM (active)

Compound: C/C(=C/C(=O)NCc1ccccc1)C(=O)O
AC50 (Cytochrome P450 2C19): inconclusive | AC50 (Cytochrome P450 2C9): 0.0398 µM (inconclusive)

Compound: Cc1cccc(C(=O)NNC(=O)C2CCCO2)c1 (configuration not stated)
AC50 (Cytochrome P450 2C19; read-out: AC50): 5.01 µM (inconclusive)

Compound: O=C(O)c1ccc(NCc2nc3cc4ccccc4cc3[nH]2)cc1
AC50 (Cytochrome P450 1A2): 5.01 µM (inconclusive)

Compound: O=C(COc1cccnc1[N+](=O)[O-])Nc1cc(S(=O)(=O)N2CCCCC2)ccc1Cl
EC50 [1]: > 195 µM (not active)

Compound: Cc1ccc(NC(=O)C2CCCN2S(=O)(=O)c2ccc3c(c2)n(C)c(=O)c(=O)n3C)cc1C (configuration not stated)
EC50 [1]: > 195 µM (not active)

Compound: Cn1c(=O)c(-c2cccs2)nc2cnc(N3CCNCC3)nc21
AC50 (Cytochrome P450 3A4): 25.1 µM (inconclusive) | AC50 (Cytochrome P450 2C9): 39.8 µM (inconclusive)
